Reference: paper PMC2195886 (The Journal of Experimental Medicine, 2001)
Entries after “also recorded” stand apart in the source; their conditions may differ. Where two headings read alike, the source gives them in different places. Peptide text beside a SMILES is read from it.

Tests used:
HLA-A*0201 [1] = target: T1, HLA-A*0201 (Homo sapiens, UniProt P04439, D140Y/D185E/D98H/E176V/E277Q/G131W/G231S/I119V/I121R/I166T/I218V/L300P/L318F/N151K/N90K/P208A/P217A/Q86G/Q94H/R138H/R169H/T345S)
20S proteasomes = experiment: 1 μg of purified proteasome; conditions: human, 37°C, up to 24 h
HLA-A*0201 [2] = target: T1, HLA-A*0201; experiment: cell-based; assay type: binding

FLPSDYFPSV [HBV control, reference compound]
Stability DT50 (HLA-A*0201 [1]): >4 h

QSLLQHLIGLSNLTHVLYPVPLESYED
not cleaved (20S proteasomes): not COOH-terminally excised

PTLAKFSPYLGQMINLRRLLLSHIHAS
cleaved bond (20S proteasomes): L267-S268, minor, 1 h

DEALAIAALELLPRELFPPLFMAAFDG
cleaved bond (20S proteasomes): Leu45-E46, major, 1 h; also recorded: Met58-Ala59, minor, 1 h; also recorded: Ala59-A60, minor, 1 h

CC[C@H](C)[C@H](NC(=O)[C@H](CCCCN)NC(=O)[C@H](CC(C)C)NC(=O)[C@H](CCCCN)NC(=O)[C@H](CCCCN)NC(=O)[C@H](CS)NC(=O)[C@H](CS)NC(=O)[C@H](CC(C)C)NC(=O)[C@@H](N)CCCNC(=N)N)C(=O)O (H-RLCCKKLKI-OH)
IC50 (HLA-A*0201 [2]): 20.8 µM

SQFLSLQCLQALYVDSLFFLRGRLDQL
cleaved bond (20S proteasomes): Val303-Asp304, minor, 1 h; also recorded: Asp304-S305, minor, 1 h; also recorded: Leu306-F307, major, 1 h; also recorded: Leu309-R310, major, 1 h | not cleaved (20S proteasomes): not COOH-terminally generated

LAYLHARLRELLCELGRPSMVWLSANP
cleaved bond (20S proteasomes): L470-L471, minor, 1 h

IPVEVLVDLFLKEGACDELFSYLIEKV
not cleaved (20S proteasomes): not COOH-terminally excised

VMLTDVSPEPLQALLERASATLQDLVF
not cleaved (20S proteasomes): not COOH-terminally excised

QHLHLETFKAVLDGLDVLLAQEVRPRR
cleaved bond (20S proteasomes): Phe97-Lys98, major, 1 h; also recorded: Leu108-A109, major, 1 h | not cleaved (20S proteasomes): only Leu-108 was generated

WTVWSGNRASLYSFPEPEAAQPMTKKR
cleaved bond (20S proteasomes): Ala141-S142, major, 1 h; also recorded: Ala151-A152, major, 1 h

GNSISISALQSLLQHLIGLSNLTHVLY
cleaved bond (20S proteasomes): L423-Q424, major, 1 h; also recorded: L433-S434, major, 1 h | not cleaved (20S proteasomes): not COOH-terminally excised

PLETLSITNCRLSEGDVMHLSQSPSVS
cleaved bond (20S proteasomes): L342-S343, minor, 1 h
